Assay results from patent US8835476B2, “Synthesis of novel antimicrobials” (priority 2005, dated 2014).
Converted amounts (≈) assume the structure as drawn. Read-outs that look alike come from different tables or passages of the source.

Legend:
Assay type in all cases: cell-based
P. rettgeri CAP = test: Broth microdilution MIC, reference strains; details: Providencia rettgeri, read-out: MIC (growth inhibition, microdilution method)
Description: (§1) All clinical isolates tested were from The North American Urinary Tract Infection Collaborative Alliance (NAUTICA) which is a UTI surveillance study involving 40 medical centres (30 from the US and 10 from Canada). Each centre submitted up to 50 consecutive outpatient midstream urine isolates. All isolates were deemed significant urinary tract pathogens by individual laboratory criteria and identified to the species level by each laboratory's existing protocol. Isolates were transported to the coordinating laboratory (Health Sciences Centre, Winnipeg, Canada) on charcoal swabs. Only one isolate per patient was accepted. Upon receipt, isolates were cultured by the coordinating laboratory, stocked in skim milk, and stored at −80° C. awaiting reference antibiotic susceptibility testing. Elementary demographic information was also compiled for each isolate. Isolates were selected randomly from the above pool to represent 18 different species of Enterobacteriaceae and non-Enterobacteriaceae. An average of 5 strains of each species were tested for a total of 93 organisms. In addition, 23 reference (ATCC) [both gram negative and gram positive] strains were tested.
(§2) Susceptibilities to the compounds were determined using the National Committee for Clinical Laboratory Standards (NCCLS) M7-A6 broth microdilution method. […] DMSO controls were incorporated into the panel to mimic the quantity of DMSO used in dissolving some of the compounds at the higher concentrations. Each final panel well volume was 100 μl with a bacterial inoculum of 5×10^5 colony forming units (CFU)/ml. Panels were read following 16 to 20 hours of incubation at 35° C. in ambient air. The minimum inhibitory concentration (MIC) was defined as the lowest concentration of antimicrobial inhibiting visible growth. Quality control (QC) was performed using four ATCC QC organisms that were run with every batch set up to insure reproducibility.

S. marcescens ATCC 8100 = test: Broth microdilution MIC, ATCC strains; details: Serratia marcescens
Description: as §1, §2

K. oxytoca ATCC 49131 = test: Broth microdilution MIC, ATCC strains; details: Klebsiella oxytoca
Description: as §1, §2

[1] = test system: S. maltophilia ATCC 13637; test: Broth microdilution MIC, ATCC strains; details: Stenotrophomonas maltophilia, ATCC13637; S. maltophilia ATCC 13637; read-out: MIC (growth inhibition, microdilution method)
Description: as §1, §2

E. faecium ATCC 35667 = test: Broth microdilution MIC, ATCC strains; details: Enterococcus faecium, ATCC35667, read-out: MIC (growth inhibition, microdilution method)
Description: as §1, §2

E. cloacae ATCC 23355 = test: Broth microdilution MIC, ATCC strains; details: Enterobacter cloacae
Description: as §1, §2

P. vulgaris ATCC 49132 = test: Broth microdilution MIC, ATCC strains; details: Proteus vulgaris
Description: as §1, §2

S. simulans ATCC 27848 = test: Broth microdilution MIC, ATCC strains; details: Staphylococcus simulans, ATCC27848, read-out: MIC (growth inhibition, microdilution method)
Description: as §1, §2

K. pneumoniae ATCC 13883 = test: Broth microdilution MIC, ATCC strains; details: Klebsiella pneumoniae
Description: as §1, §2

S. warneri ATCC 27836 = test: Broth microdilution MIC, ATCC strains; details: Staphylococcus warneri
Description: as §1, §2

A. anitratus ATCC 19606 = test: Broth microdilution MIC, ATCC strains; details: Acinetobacter calcoaceticus, ATCC19606; A. anitratus ATCC 19606; read-out: MIC (growth inhibition, microdilution method)
Description: as §1, §2

[2] = test system: S. epidermidis ATCC 14990; test: Broth microdilution MIC, ATCC strains; details: Staphylococcus epidermidis, ATCC14990; S. epidermidis ATCC 14990; read-out: MIC (growth inhibition, microdilution method)
Description: as §1, §2

B. cepacia ATCC 25416 = test: Broth microdilution MIC, ATCC strains; details: Burkholderia cepacia, ATCC25416; B. cepacia ATCC 25416; read-out: MIC (growth inhibition, microdilution method)
Description: as §1, §2

[3] = test system: Ps. aeruginosa ATCC 27853; test: Broth microdilution MIC, ATCC strains; details: Pseudomonas aeruginosa
Description: as §1, §2

E. coli ATCC 25922 = test: Broth microdilution MIC, ATCC strains; details: Escherichia coli
Description: as §1, §2

Pr. stuartii ATCC 33672 = test: Broth microdilution MIC, ATCC strains; details: Providencia stuartii
Description: as §1, §2

P. mirabilis ATCC 29245 = test: Broth microdilution MIC, ATCC strains; details: Proteus mirabilis
Description: as §1, §2

E. aerogenes ATCC 13048 = test: Broth microdilution MIC, ATCC strains; details: Klebsiella aerogenes
Description: as §1, §2

MRSA ATCC 33591 = test: Broth microdilution MIC, ATCC strains; details: Staphylococcus aureus; MRSA ATCC 33591; read-out: MIC (growth inhibition, microdilution method)
Description: as §1, §2

[4] = test system: S. saprophyticus ATCC 15305; test: Broth microdilution MIC, ATCC strains; details: Staphylococcus saprophyticus
Description: as §1, §2

S. aureus ATCC 29213 = test: Broth microdilution MIC, ATCC strains; details: for MIC: Staphylococcus aureus
Description: as §1, §2

E. faecalis ATCC 29212 = test: Broth microdilution MIC, ATCC strains; details: for MIC: Enterococcus faecalis, read-out: MIC (growth inhibition, microdilution method)
Description: as §1, §2

[5] = ATCC8100, S. marcescens ATCC 8100, read-out: MIC (growth inhibition, microdilution method)
[6] = ATCC49131, K. oxytoca ATCC 49131, read-out: MIC (growth inhibition, microdilution method)
[7] = ATCC23355, E. cloacae ATCC 23355, read-out: MIC (growth inhibition, microdilution method)
[8] = ATCC49132, P. vulgaris ATCC 49132, read-out: MIC (growth inhibition, microdilution method)
[9] = ATCC13883, K. pneumoniae ATCC 13883, read-out: MIC (growth inhibition, microdilution method)
[10] = ATCC27836, S. warneri ATCC 27836, read-out: MIC (growth inhibition, microdilution method)
[11] = ATCC27853, Ps. aeruginosa ATCC 27853, read-out: MIC (growth inhibition, microdilution method)
[12] = ATCC25922, E. coli ATCC 25922, read-out: MIC (growth inhibition, microdilution method)
[13] = ATCC33672, Pr. stuartii ATCC 33672, read-out: MIC (growth inhibition, microdilution method)
[14] = ATCC29245, P. mirabilis ATCC 29245, read-out: MIC (growth inhibition, microdilution method)
[15] = ATCC13048, E. aerogenes ATCC 13048, read-out: MIC (growth inhibition, microdilution method)
[16] = ATCC15305, S. saprophyticus ATCC 15305, read-out: MIC (growth inhibition, microdilution method)
[17] = ATCC29213, S. aureus ATCC 29213, read-out: MIC (growth inhibition, microdilution method)
[18] = ATCC29212, E. faecalis ATCC 29212
[19] = ATCC29212, E. faecalis, ATCC number not given

CCOC(=O)c1cc(-c2nnn(C)n2)c(-c2ccc(F)cc2)s1 [DNM-125, ethyl 5-(4-fluorophenyl)-4-(2-methyl-2H-tetrazol-5-yl)thiophene-2-carboxylate]
MIC (P. rettgeri CAP; P. rettgeri (CAP in Table 1)): > 16 µg/mL | MIC (S. marcescens ATCC 8100; [5]): > 16 µg/mL | MIC (K. oxytoca ATCC 49131; [6]): > 16 µg/mL | MIC [1]: > 16 µg/mL | MIC (E. faecium ATCC 35667): > 16 µg/mL | MIC (E. cloacae ATCC 23355; [7]): > 16 µg/mL | MIC (P. vulgaris ATCC 49132; [8]): > 16 µg/mL | MIC (S. simulans ATCC 27848): > 16 µg/mL | MIC (K. pneumoniae ATCC 13883; [9]): > 16 µg/mL | MIC (S. warneri ATCC 27836; [10]): > 16 µg/mL | MIC (A. anitratus ATCC 19606): > 16 µg/mL | MIC [2]: > 16 µg/mL | MIC (B. cepacia ATCC 25416): > 16 µg/mL | MIC [3, 11]: > 16 µg/mL | MIC (E. coli ATCC 25922; [12]): > 16 µg/mL | MIC (Pr. stuartii ATCC 33672; [13]): > 16 µg/mL | MIC (P. mirabilis ATCC 29245; [14]): > 16 µg/mL | MIC (E. aerogenes ATCC 13048; [15]): > 16 µg/mL | MIC (MRSA ATCC 33591): > 16 µg/mL | MIC [4, 16]: > 16 µg/mL | MIC (S. aureus ATCC 29213; [17]): > 16 µg/mL | MIC (E. faecalis ATCC 29212; [18]): > 16 µg/mL | MIC (E. faecalis ATCC 29212; [19]): > 16 µg/mL

COC(=O)c1cc(-c2nnn(C)n2)c(C(=O)OC)s1 [DNM-114, 3-(2-methyl-2H-tetrazol-5-yl)-thiophene-2,5-dicarboxylic acid dimethyl ester]
MIC (P. rettgeri CAP): 128 µg/mL (≈ 453 µM) | MIC (S. marcescens ATCC 8100; ATCC8100, read-out: MIC (growth inhibition, microdilution method)): 128 µg/mL (≈ 453 µM) | MIC (K. oxytoca ATCC 49131; ATCC49131, read-out: MIC (growth inhibition, microdilution method)): 128 µg/mL (≈ 453 µM) | MIC [1]: 64 µg/mL (≈ 227 µM) | MIC (E. faecium ATCC 35667): 8 µg/mL (≈ 28.3 µM) | MIC (E. cloacae ATCC 23355; ATCC23355, read-out: MIC (growth inhibition, microdilution method)): 128 µg/mL (≈ 453 µM) | MIC (P. vulgaris ATCC 49132; ATCC49132, read-out: MIC (growth inhibition, microdilution method)): 128 µg/mL (≈ 453 µM) | MIC (S. simulans ATCC 27848): 256 µg/mL (≈ 907 µM) | MIC (K. pneumoniae ATCC 13883; ATCC13883, read-out: MIC (growth inhibition, microdilution method)): 128 µg/mL (≈ 453 µM) | MIC (S. warneri ATCC 27836; ATCC27836, read-out: MIC (growth inhibition, microdilution method)): 128 µg/mL (≈ 453 µM) | MIC (A. anitratus ATCC 19606): 64 µg/mL (≈ 227 µM) | MIC [2]: 64 µg/mL (≈ 227 µM) | MIC (B. cepacia ATCC 25416): 64 µg/mL (≈ 227 µM) | MIC ([3]; ATCC27853, read-out: MIC (growth inhibition, microdilution method), Ps. aeruginosa ATCC 27853): 128 µg/mL (≈ 453 µM) | MIC [3, 11]: 64 µg/mL (≈ 227 µM) | MIC (E. coli ATCC 25922; ATCC25922, read-out: MIC (growth inhibition, microdilution method)): 128 µg/mL (≈ 453 µM) | MIC (Pr. stuartii ATCC 33672; ATCC33672, read-out: MIC (growth inhibition, microdilution method)): 128 µg/mL (≈ 453 µM) | MIC (P. mirabilis ATCC 29245; ATCC29245, read-out: MIC (growth inhibition, microdilution method)): 128 µg/mL (≈ 453 µM) | MIC (E. aerogenes ATCC 13048; ATCC13048, read-out: MIC (growth inhibition, microdilution method)): 128 µg/mL (≈ 453 µM) | MIC (MRSA ATCC 33591): 256 µg/mL (≈ 907 µM) | MIC ([4]; ATCC15305, read-out: MIC (growth inhibition, microdilution method)): 128 µg/mL (≈ 453 µM) | MIC (S. aureus ATCC 29213; ATCC29213, read-out: MIC (growth inhibition, microdilution method)): 128 µg/mL (≈ 453 µM) | MIC (E. faecalis ATCC 29212; [18]): 8 µg/mL (≈ 28.3 µM) | MIC (E. faecalis ATCC 29212; [19]): 8 µg/mL (≈ 28.3 µM)

Fc1ccc(-c2cc(-c3nnn[nH]3)c(-c3ccc(F)cc3)s2)cc1 [DNM-131, 5-(2,5-Bis(4-fluorophenyl)thiophen-3-yl)-1H-tetrazole]
MIC (P. rettgeri CAP; P. rettgeri (CAP in Table 1)): > 32 µg/mL | MIC (S. marcescens ATCC 8100; [5]): > 32 µg/mL | MIC (K. oxytoca ATCC 49131; [6]): > 32 µg/mL | MIC [1]: > 32 µg/mL | MIC (E. faecium ATCC 35667): > 32 µg/mL | MIC (E. cloacae ATCC 23355; [7]): > 32 µg/mL | MIC (P. vulgaris ATCC 49132; [8]): > 32 µg/mL | MIC (S. simulans ATCC 27848): > 32 µg/mL | MIC (K. pneumoniae ATCC 13883; [9]): > 32 µg/mL | MIC (S. warneri ATCC 27836; [10]): > 32 µg/mL | MIC (A. anitratus ATCC 19606): > 32 µg/mL | MIC [2]: > 32 µg/mL | MIC (B. cepacia ATCC 25416): > 32 µg/mL | MIC [3, 11]: > 32 µg/mL | MIC (E. coli ATCC 25922; [12]): > 32 µg/mL | MIC (Pr. stuartii ATCC 33672; [13]): > 32 µg/mL | MIC (P. mirabilis ATCC 29245; [14]): > 32 µg/mL | MIC (E. aerogenes ATCC 13048; [15]): > 32 µg/mL | MIC (MRSA ATCC 33591): > 32 µg/mL | MIC [4, 16]: > 32 µg/mL | MIC (growth inhibition, microdilution method) (S. aureus ATCC 29213; S. aureus ATCC 29213): >32 µg/mL | MIC (S. aureus ATCC 29213; [17]): 32 µg/mL (≈ 94 µM) | MIC (growth inhibition, microdilution method) (E. faecalis ATCC 29212; E. faecalis, ATCC number not given): >32 µg/mL | MIC (E. faecalis ATCC 29212; [18]): > 32 µg/mL | MIC (E. faecalis ATCC 29212; [19]): 32 µg/mL (≈ 94 µM)
